The target of assay [1] is T1, AChE (obtained from electric eel; EeAChE) (Electrophorus electricus, UniProt O42275).
T1 construct: AChE (obtained from electric eel); purchased Merck (Prague, Czech Republic); host or cells: electric eel (natural source)
The assay can be described thus: biochemical. Type of assay: biochemical. As to conditions: for Selectivity BChE/AChE: SI = ratio of IC50 for BChE/IC50 for AChE, above 1 = stronger inhibition of AChE; for IC50: electric eel AChE, mean ± SD from three independent experiments. The text has this: (§1) Hydrazinecarboxamides 1–3 were examined in vitro for their potential to inhibit the function of AChE (obtained from electric eel) and BChE from equine serum using Ellman’s spectrophotometric method (Table 2). The activities are expressed as IC50 values, i.e., concentrations leading to 50% inhibition of enzymatic activity. Based on the IC50 values for AChE and BChE, we calculated selectivity indexes (SI) that quantified the selectivity for each cholinesterase. SI is the ratio of IC50 for BChE/IC50 for AChE.
(§2) The enzyme activity in the final reaction mixture (2000 µL) was 0.2 U/mL, the concentration of ATCh (or BTCh) was 40 µM, and the concentration of DTNB was 100 µM for all reactions. The investigated derivatives were dissolved in DMSO and then diluted with demineralized water (conductivity 3 μS, equipment supplier BKG Water Treatment, Hradec Králové, Czech Republic) to a concentration of 1000 µM. Five different inhibitor concentrations were used for all tested compounds in the final reaction mixture. The final concentration of DMSO was 0.2%. All experiments were performed in triplicate. The average values of the reaction rate (v0-uninhibited reaction, vi-inhibited reaction) were used to construct the dependence of v0/vi on the concentration of inhibitors. IC50 values were calculated from obtained regression curve equations.
(§3) Acetylcholinesterase originating from electric eels (Electrophorus electricus L.; EeAChE) and butyrylcholinesterase obtained from equine serum (EqBChE) were used.

The target in assay [2] is T2, BChE from equine serum (EqBChE) (Equus caballus, UniProt P81908).
T2 construct: BChE from equine serum; purchased Merck (Prague, Czech Republic); host or cells: equine serum (natural source)
T2 sequence (P81908 whole entry): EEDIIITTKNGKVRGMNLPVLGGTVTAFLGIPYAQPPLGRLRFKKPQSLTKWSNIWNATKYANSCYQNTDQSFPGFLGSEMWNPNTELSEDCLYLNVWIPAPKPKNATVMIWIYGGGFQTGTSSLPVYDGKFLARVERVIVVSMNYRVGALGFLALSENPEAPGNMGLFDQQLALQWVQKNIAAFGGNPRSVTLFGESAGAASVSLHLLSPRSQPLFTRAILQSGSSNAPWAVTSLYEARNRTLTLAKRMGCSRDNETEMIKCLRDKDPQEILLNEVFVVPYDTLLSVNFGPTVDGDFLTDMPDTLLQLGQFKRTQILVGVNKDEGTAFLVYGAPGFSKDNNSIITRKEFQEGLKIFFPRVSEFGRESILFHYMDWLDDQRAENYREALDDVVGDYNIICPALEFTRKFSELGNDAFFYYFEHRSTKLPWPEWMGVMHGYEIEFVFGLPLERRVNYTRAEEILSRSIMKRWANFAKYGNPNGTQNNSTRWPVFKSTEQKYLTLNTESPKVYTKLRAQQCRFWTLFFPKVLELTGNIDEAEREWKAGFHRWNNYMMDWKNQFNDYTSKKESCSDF
The assay can be described thus: biochemical. Type of assay: biochemical. As to conditions: for IC50: equine serum BChE, mean ± SD from three independent experiments.
Text: as §1, §2, §3

T1 sequence (O42275 24-633): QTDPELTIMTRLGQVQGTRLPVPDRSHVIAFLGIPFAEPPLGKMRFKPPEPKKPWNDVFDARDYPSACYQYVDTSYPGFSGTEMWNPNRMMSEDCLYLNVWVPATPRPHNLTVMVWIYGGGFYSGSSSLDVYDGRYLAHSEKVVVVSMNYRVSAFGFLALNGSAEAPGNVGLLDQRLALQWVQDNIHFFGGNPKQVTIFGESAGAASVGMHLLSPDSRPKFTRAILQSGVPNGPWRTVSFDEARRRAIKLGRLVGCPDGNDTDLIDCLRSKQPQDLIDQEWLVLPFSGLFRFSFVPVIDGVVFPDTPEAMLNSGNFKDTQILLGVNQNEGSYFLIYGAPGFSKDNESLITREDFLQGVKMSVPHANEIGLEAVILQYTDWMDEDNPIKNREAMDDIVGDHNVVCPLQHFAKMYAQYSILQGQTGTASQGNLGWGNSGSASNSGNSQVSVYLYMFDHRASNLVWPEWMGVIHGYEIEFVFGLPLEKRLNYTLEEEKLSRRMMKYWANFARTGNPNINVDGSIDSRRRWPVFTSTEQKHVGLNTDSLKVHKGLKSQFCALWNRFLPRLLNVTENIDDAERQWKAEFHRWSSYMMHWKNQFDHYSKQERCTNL

In the case of `CNC(=O)NNC(=O)c1ccc(I)cc1` [1i, 2-(4-Iodobenzoyl)-N-methylhydrazine-1-carboxamide], the “Selectivity BChE/AChE” value in assay [1] is given as more than 6.8. In addition, the values for the 50% inhibitory concentration (IC50) in assay [1] and in assay [2] were 73.8 ± 1.78 µM and more than 500 µM, respectively.
For the molecule `CCCCCCCCCCCCCNC(=O)NNC(=O)c1ccc(OC)cc1` [1v, 2-(4-Methoxybenzoyl)-N-tridecylhydrazine-1-carboxamide], in assay [1], the “Selectivity BChE/AChE” value is 4.5 and inhibition was half-maximal at 83.6 ± 3.16 µM (IC50). In assay [2], this molecule came in with a half-maximal inhibitory concentration (IC50) of 376 ± 17 µM.
Regarding `CCCCCCCCCCCCCNC(=O)NNC(=O)c1cccc(C(F)(F)F)c1` [2b, N-Tridecyl-2-[3-(trifluoromethyl)benzoyl]hydrazine-1-carboxamide], in assay [1], the “Selectivity BChE/AChE” value is 4.6. The IC50 in assay [1] is 63.9 ± 0.83 µM; in assay [2] it was 292 ± 10.7 µM.
For `CNC(=O)NNC(=O)c1cccc(C(F)(F)F)c1` [2a, N-Methyl-2-[3-(trifluoromethyl)benzoyl]hydrazine-1-carboxamide], in assay [1], the “Selectivity BChE/AChE” value came to 3.7 and the 50% inhibitory concentration (IC50) was 61.3 ± 1 µM. The IC50 in assay [2] is 225 ± 7.84 µM.
On to `CCCCCCCCCCCCCNC(=O)NNC(=O)c1ccccc1C(F)(F)F` [2d, N-Tridecyl-2-[2-(trifluoromethyl)benzoyl]hydrazine-1-carboxamide], for which, in assay [1], the “Selectivity BChE/AChE” value was determined as 5.2. The half-inhibitory concentration (IC50) in assay [1] is 80.4 ± 2.1 µM; in assay [2], 422 ± 12.4 µM.
Take `CCCCCCCCCCCCCNC(=O)NNC(=O)Cc1ccc(C(F)(F)F)cc1` [3b, N-Tridecyl-2-{2-[4-(trifluoromethyl)phenyl]acetyl}hydrazine-1-carboxamide]: in assay [1], the “Selectivity BChE/AChE” value amounted to 3.6 and 81.69 ± 0.45 µM corresponded to half-maximal inhibition (IC50). For the same molecule, the IC50 in assay [2] was 292.9 ± 1.72 µM.
Regarding `CNC(=O)NNC(=O)c1ccc(Cl)cc1` [1e, 2-(4-Chlorobenzoyl)-N-methylhydrazine-1-carboxamide], in assay [1], the “Selectivity BChE/AChE” value came out at 7.2 and the IC50 is 44.1 ± 1.79 µM. Further, in assay [2], the IC50 was 319 ± 12.6 µM.
With `CCCCCCCCCCCCCNC(=O)NNC(=O)c1ccc(Br)cc1` [1h, 2-(4-Bromobenzoyl)-N-tridecylhydrazine-1-carboxamide], in assay [1], the “Selectivity BChE/AChE” value is 0.4 and the midpoint of inhibition, the IC50, lay at 72.66 ± 0.67 µM. For the same molecule, the “Fold improvement of BChE inhibition, tridecyl vs. N-methyl analog” value in assay [2] (1g vs. 1h) stood at 13.3 ×. For the same molecule, the IC50 in assay [2] was 27.08 ± 0.07 µM.
Regarding `CNC(=O)NNC(=O)c1ccc(N(C)C)cc1` [1y, 2-[4-(Dimethylamino)benzoyl]-N-methylhydrazine-1-carboxamide], in assay [1], the “Selectivity BChE/AChE” value was found to be 4.3 and half-maximal inhibition (IC50) required 70 ± 1.74 µM. In assay [2], this molecule showed an IC50 of 300 ± 13.6 µM.
Take `CNC(=O)NNC(=O)c1ccc(OC)cc1` [1u, 2-(4-Methoxybenzoyl)-N-methylhydrazine-1-carboxamide]: in assay [1], the “Selectivity BChE/AChE” value is reported as 3.0 and the IC50 stood at 57.2 ± 0.92 µM. In assay [2], this molecule returned an IC50 of 171 ± 8.36 µM.
For `CNC(=O)NNC(=O)c1ccc(O)cc1` [1aa, 2-(4-Hydroxybenzoyl)-N-methylhydrazine-1-carboxamide], in assay [1], the “Selectivity BChE/AChE” value came to 3.7 and half-maximal inhibition (IC50) required 67.6 ± 1.3 µM. Further, the IC50 in assay [2] amounted to 247 ± 18.4 µM.
The like results for `CNC(=O)NNC(=O)c1ccc(Br)cc1` [1g, 2-(4-Bromobenzoyl)-N-methylhydrazine-1-carboxamide] were, in that order, 7.1, 50.6 ± 1.55 µM and 359.6 ± 2.17 µM.
`CNC(=O)NNC(=O)c1ccc(-c2ccccc2)cc1` [1s, N-Methyl-2-(4-phenylbenzoyl)hydrazine-1-carboxamide]: in assay [1], the “Selectivity BChE/AChE” value is on record as 4.7 and the concentration for half-maximal inhibition (IC50) amounted to 64.4 ± 1.67 µM. This molecule also had an IC50 in assay [2] of 301 ± 7.46 µM.
For `CNC(=O)NNC(=O)c1ccc(C)cc1` [1o, N-Methyl-2-(4-methylbenzoyl)hydrazine-1-carboxamide], in assay [1], the “Selectivity BChE/AChE” value is listed as 4.6 and it took 62.29 ± 0.56 µM to reach half-maximal inhibition (IC50). This molecule also returned a 50% inhibitory concentration (IC50) in assay [2] of 284 ± 13.2 µM.
The like results for `CNC(=O)NNC(=O)c1ccccc1` [1ee, 2-Benzoyl-N-methylhydrazine-1-carboxamide] were, in that order, 3.6, 63.3 ± 1.49 µM and 229.21 ± 0.08 µM.
The matching figures for `CCCCCCCCCCCCCNC(=O)NNC(=O)c1ccc(S(N)(=O)=O)cc1` [1dd, 2-(4-Sulfamoylbenzoyl)-N-tridecylhydrazine-1-carboxamide]: 3.7, 74.6 ± 1.12 µM and 275 ± 10.7 µM.
Take `CNC(=O)NNS(=O)(=O)c1ccc(C(F)(F)F)cc1` [3c, N-Methyl-2-{[4-(trifluoromethyl)phenyl]sulfonyl}hydrazine-1-carboxamide]: the half-inhibitory concentration (IC50) in assay [1] came out at 71.1 ± 0.94 µM; in assay [2], 425 ± 13.2 µM.
For the molecule `CCCCCCCCCCCCCNC(=O)NNC(=O)c1ccccc1Br` [2l, 2-(2-Bromobenzoyl)-N-tridecylhydrazine-1-carboxamide], in assay [1], the “Selectivity BChE/AChE” value is on record as more than 9.3 and the IC50 turned out to be 53.99 ± 0.44 µM. For the same molecule, the IC50 in assay [2] is more than 500 µM.
On to `CNC(=O)NNC(=O)c1ccc(C#N)cc1` [1m, 2-(4-Cyanobenzoyl)-N-methylhydrazine-1-carboxamide], for which, in assay [1], the “Selectivity BChE/AChE” value came to 8.1 and the IC50 is 55.64 ± 0.27 µM. Also, in assay [2], it took 448 ± 39 µM to reach half-maximal inhibition (IC50).
Consider `CCCCCCCCCCCCCNC(=O)NNC(=O)c1ccccc1` [1ff, 2-Benzoyl-N-tridecylhydrazine-1-carboxamide], for which, in assay [1], the “Selectivity BChE/AChE” value worked out at 3.2 and the midpoint of inhibition, the IC50, lay at 73.4 ± 2.45 µM. Also, the IC50 in assay [2] came out at 235 ± 5.57 µM.
The like results for `CNC(=O)NNC(=O)c1cccc(Br)c1` [2i, 2-(3-Bromobenzoyl)-N-methylhydrazine-1-carboxamide] were, in that order, 6.8, 51.9 ± 2 µM and 354 ± 8.79 µM.
As to `CNC(=O)NNC(=O)c1ccc(OC(F)(F)F)cc1` [1a, N-Methyl-2-[4-(trifluoromethoxy)benzoyl]hydrazine-1-carboxamide], in assay [1], the “Selectivity BChE/AChE” value stood at 3.6. Further, the IC50 in assay [1] came out at 56.76 ± 0.49 µM; in assay [2], 204 ± 13.5 µM.
Regarding `CCCCCCCCCCCCCNC(=O)NNS(=O)(=O)c1ccc(C(F)(F)F)cc1` [3d, N-Tridecyl-2-{[4-(trifluoromethyl)phenyl]sulfonyl}hydrazine-1-carboxamide], the “Selectivity BChE/AChE” value in assay [1] is recorded as more than 8.4. Moreover, the IC50 in assay [1] was found to be 58.8 ± 0.96 µM; in assay [2] it was 339 ± 11.6 µM.
For the molecule `CNC(=O)NNC(=O)c1ccc([N+](=O)[O-])cc1` [1k, N-Methyl-2-(4-nitrobenzoyl)hydrazine-1-carboxamide], in assay [1], the “Selectivity BChE/AChE” value was found to be 3.3 and inhibition was half-maximal at 54 ± 2.21 µM (IC50). In addition, in assay [2], 178 ± 9.13 µM corresponded to half-maximal inhibition (IC50).
Turning to `CNC(=O)NNC(=O)c1ccc(S(N)(=O)=O)cc1` [1cc, N-Methyl-2-(4-sulfamoylbenzoyl)hydrazine-1-carboxamide], in assay [1], the “Selectivity BChE/AChE” value came out at 2.9 and it took 86.14 ± 0.5 µM to reach half-maximal inhibition (IC50). For the same molecule, the IC50 in assay [2] amounted to 250 ± 5.22 µM.
Consider `CCCCCCCCCCCCCNC(=O)NNC(=O)c1ccc(O)cc1` [1bb, 2-(4-Hydroxybenzoyl)-N-tridecylhydrazine-1-carboxamide], for which the “Selectivity BChE/AChE” value in assay [1] was found to be 2.0. Also, the IC50 in assay [1] worked out at 74.7 ± 3.31 µM; in assay [2], 149 ± 10.7 µM.
For the molecule `CCCCCCCCCCCCCNC(=O)NNC(=O)c1ccc(C#N)cc1` [1n, 2-(4-Cyanobenzoyl)-N-tridecylhydrazine-1-carboxamide], in assay [1], the “Selectivity BChE/AChE” value was found to be 7.6 and the 50% inhibitory concentration (IC50) was found to be 54.6 ± 1.27 µM. The IC50 in assay [2] was 418 ± 15.7 µM.
For the molecule `CNC(=O)NNC(=O)c1ccccc1C(F)(F)F` [2c, N-Methyl-2-[2-(trifluoromethyl)benzoyl]hydrazine-1-carboxamide], in assay [1], the “Selectivity BChE/AChE” value came out at 4.8 and half-maximal inhibition (IC50) was put at 61.09 ± 0.03 µM. Besides, it took 296.2 ± 0.87 µM to reach half-maximal inhibition in assay [2] (IC50).
Consider `CCCCCCCCCCCCCNC(=O)NNC(=O)c1ccc(OC(F)(F)F)cc1` [1b, N-Tridecyl-2-[4-(trifluoromethoxy)benzoyl]hydrazine-1-carboxamide], for which, in assay [1], the “Selectivity BChE/AChE” value amounted to 1.9. The figures for the IC50 in assay [1] and in assay [2] were 65.1 ± 1.15 µM and 125.2 ± 1.17 µM, respectively.
In the case of `CNC(=O)NNC(=O)c1cccc([N+](=O)[O-])c1` [2e, N-Methyl-2-(3-nitrobenzoyl)hydrazine-1-carboxamide], in assay [1], the “Selectivity BChE/AChE” value is more than 7.4 and the IC50 amounted to 67.4 ± 1.72 µM. The same molecule displayed an IC50 in assay [2] of more than 500 µM.
`CCCCCCCCCCCCCNC(=O)NNC(=O)c1ccc(F)cc1` [1d, 2-(4-Fluorobenzoyl)-N-tridecylhydrazine-1-carboxamide]: in assay [1], the “Selectivity BChE/AChE” value was 8.0 and the IC50 was found to be 60.16 ± 0.53 µM. In addition, in assay [2], the 50% inhibitory concentration (IC50) turned out to be 483 ± 20.2 µM.
The matching figures for `CCCCCCCCCCCCCNC(=O)NNC(=O)c1cccc([N+](=O)[O-])c1` [2f, 2-(3-Nitrobenzoyl)-N-tridecylhydrazine-1-carboxamide]: 3.8, 62.5 ± 1.79 µM and 236 ± 6.54 µM.
On to `CNC(=O)NNC(=O)c1ccc(Oc2ccccc2)cc1` [1w, N-Methyl-2-(4-phenoxybenzoyl)hydrazine-1-carboxamide], for which the “Selectivity BChE/AChE” value in assay [1] was 4.0. The IC50 in assay [1] was 75 ± 0.84 µM; in assay [2] it was 302.3 ± 2.11 µM.

(Values after PMC9962224, “Novel Inhibitors of Acetyl- and Butyrylcholinesterase Derived from Benzohydrazides: Synthesis, Evaluation and Docking Study” (Pharmaceuticals, 2023).)
